Tested on: not given
Assay: not given
Conditions: not given

Compound	melting point
CN1CCN(c2cccc3c2OC(C(=O)Nc2ccc(N4CCOCC4)cc2)CC3)CC1 (racemic) [Example 75, Racemic-8-(4-Methyl-piperazin-1-yl)-chroman-2-carboxylic acid (4-morpholin-4-yl-phenyl)-amide]	215 to 216 °C
CN1CCN(c2cccc3c(=O)cc(-c4nc5ccc(N6CCOCC6)cc5o4)oc23)CC1 [Example 21, 8-(4-Methyl-piperazin-1-yl)-2-(6-morpholin-4-yl-benzooxazol-2-yl)-chromen-4-one]	158.1 to 158.8 °C
COc1cc(N2CCN(C)CC2)c2oc(C(=O)Nc3ccc(N4CCN(C(=O)CCO)CC4)cc3)cc(=O)c2c1 [Example 68, 6-Methoxy-8-(4-methyl-piperazin-1-yl)-4-oxo-4H-chromene-2-carboxylic Acid {4-[4-(3-hydroxy-propanoyl)-piperazin-1-yl]-phenyl}-amide]	195 to 197 °C
CCS(=O)(=O)N1CCN(c2ccc(NC(=O)c3cc(=O)c4cc(F)cc(N5CCN(C)CC5)c4o3)cc2)CC1 [Example 71]	233 to 234 °C
CN1CCN(c2cc(F)cc3c(=O)cc(C(=O)Nc4ccc(N5CCN(C(=O)CCO)CC5)cc4)oc23)CC1 [Example 73, 6-Fluoro-8-(4-methyl-piperazin-1-yl)-4-oxo-4H-chromene-2-carboxylic Acid {4-[4-(3-hydroxy-propanoyl)-piperazin-1-yl]-phenyl}-amide]	195 to 199 °C
CCNC(=O)N1CCN(c2ccc(NC(=O)c3cc(=O)c4cc(F)cc(N5CCN(C)CC5)c4o3)cc2)CC1 [Example 81, 4-[4-({1-[6-Fluoro-8-(4-methyl-piperazin-1-yl)-4-oxo-4H-chromen-2-yl]-methanoyl}-amino)-phenyl]-piperazine-1-carboxylic Acid Ethylamide]	236 to 238 °C

Now from value to molecule:

melting point	Compound
215 to 216 °C	CN1CCN(c2cccc3c2OC(C(=O)Nc2ccc(N4CCOCC4)cc2)CC3=O)CC1 (racemic) [Example 78, racemic-8-(4-methyl-piperazin-1-yl)-4-oxo-chroman-2-carboxylic acid (4-morpholin-4-yl-phenyl)-amide]
216 °C (dec.)	CN1CCN(c2cccc3c2OC(C(=O)Nc2ccc(N4CCOCC4)cc2)CC3=O)CC1 (single isomer, unassigned) [Example 79, 8-(4-Methyl-piperazin-1-yl)-4-oxo-chroman-2-carboxylic Acid (4-morpholin-4-yl-phenyl)-amide]
215 °C (dec.)	CN1CCN(c2cccc3c2OC(C(=O)Nc2ccc(N4CCOCC4)cc2)CC3=O)CC1 (single isomer, unassigned) [Example 80, 8-(4-Methyl-piperazin-1-yl)-4-oxo-chroman-2-carboxylic Acid (4-morpholin-4-yl-phenyl)-amide]
206 to 207 °C	CN1CCN(c2cccc3c2OC(C(=O)Nc2ccc(N4CCOCC4)cc2)CC3)CC1 (single isomer, unassigned; (+)) [Example 76, (+)-8-(4-Methyl-piperazin-1-yl)-chroman-2-carboxylic Acid (4-morpholin-4-yl-phenyl)-amide]
205.5 to 207 °C	CN1CCN(c2cccc3c2OC(C(=O)Nc2ccc(N4CCOCC4)cc2)CC3)CC1 (single isomer, unassigned; (-)) [Example 77, (−)-8-(4-Methyl-piperazin-1-yl)-chroman-2-carboxylic Acid (4-morpholin-4-yl-phenyl)-amide]
217 to 218 °C (dec.)	CN1CCN(c2cccc3c(=O)cc(C(=O)Nc4ccc(N5CCOCC5)cc4)oc23)CC1 [Example 1, 8-(4-methyl-1-piperazinyl)-N-[4-(4-morpholinyl)phenyl]-4-oxo-4H-chromene-2-carboxamide]
248.4 to 249.6 °C	CN1CCN(c2cccc3c(=O)cc(C(=O)Nc4ccc(N5CCOCC5)cc4O)oc23)CC1 [Example 22, 8-(4-Methyl-piperazin-1-yl)-4-oxo-4H-chromene-2-carboxylic Acid (2-hydroxy-4-morpholin-4-yl-phenyl)-amide]
234 to 236 °C	COc1cc(N2CCN(C)CC2)c2oc(C(=O)Nc3ccc(N4CCOCC4)cc3)cc(=O)c2c1 [Example 31, 6-Methoxy-8-(4-methyl-piperazin-1-yl)-4-oxo-4H-chromene-2-carboxylic acid (4-morpholin-4-yl-phenyl)-amide]

Tested on: 5-HT1B receptors and 5-HT1D receptors
Assay: Radioligand competition binding with [3H]-GR125743 on membranes of transfected CHO cells
Conditions: not given
Source text: Other assays that may be used to measure for example affinity of compounds of the present invention for 5HT1B and 5HT1D receptors are described in J. Med. Chem 41:1218-1235, 1228 (1998) and J. Med. Chem 42:4981-5001, (1999) and incorporated by reference herein. These assays may be used with some modifications: Frozen membrane preparations of a stably transfected chinese hamster ovary (CHO) cell line expressing 5-HT1B receptors and 5-HT1D receptors are thawed rapidly, briefly vortexed, and diluted in assay buffer (AB) containing 50 mM Tris-HCl, 4 mM MgCl2, 4 mM CaCl2, 1 mM EDTA, and adjusted to pH 7.4 with NaOH. Final protein concentrations are—0.185 mg/ml for 5-HT1B, and 0.4 mg/ml for 5-HT1D membranes. Test compounds are evaluated in competition assays using [^3H]-GR125743 (Amersham). The ligand concentration in both assays was 0.27 nM. […] The 5-HT1B and 5-HT1D assays are performed simultaneously on one 96-well assay plate, one drug/compound per plate. Ten serial dilutions (1 uM to 4 pM, final concentration) of compound are prepared in DMSO from 10 mM stock solutions. Incubation mixtures are prepared in quadruplicate in 96-deep well assay plates (Matrix 1 ml). […] The plates are then counted on a Packard TopCount to determine CPM's per well. Ki values are determined for each test compound utilizing the graphic and analytical software package, GraphPad Prism. […]

Compound	Kd
COc1ccc(NC(=O)c2ccc(-c3ccncc3)c(C)c2)cc1N1CCN(C)CC1 [[^3H]-GR125743]	0.15 to 0.25 nM

Tested on: Hartley guinea pigs
Assay: Learned helplessness test
Assay type: in vivo, guinea pig
Conditions: antidepressant/antianxiety activity
Source text: The utility of the compounds for example to treat depression may be shown via a learned helplessness test in guinea pigs, which is used extensively as correlative to antidepressant activity in humans. The learned helplessness test may be carried out as follows: Seventy male Hartley guinea pigs, each weighing about 350-425 gm are fed ad lib, and are housed under a 12-hour light/dark cycle. The procedure consists of two phases: The induction phase and the avoidance training phase. In the induction phase, subjects are placed into standard shuttle cages (20 L×16 W×21 centimeters H) which are fitted with a grid floor. Electrical stimulation (1.25 mA, 10 sec duration) is delivered to the floor of the cage every 90-sec during 1 hour daily sessions. Subjects have no opportunity to escape or to avoid shocks. Induction is conducted for 2 consecutive days.
In avoidance training, testing is also conducted in the shuttle cages, except that the subjects are not returned to the same chamber in which induction had occurred. Additionally, all cages are fitted with a partition with an arch in the center of the cage, through which animals can pass between the left and right halves of the cage. The procedure employed is a standard shuttle avoidance procedure in which a compound, conditioned stimulus (a 10-sec presentation of a tone and turning on of a lamp on the side of the cage that the guinea pig was occupying) serves to indicate presentation of electrical current to the floor of the cage. Shock is presented for a 5 sec period, 5 sec after initiation of the conditioned stimulus. Entry into the opposite side of the shuttle cage via the arched partition prior to shock onset results in the end of the trial (avoidance response). If shock is delivered, entry into the opposite side of the cage results in termination of the shock and CS (escape). Reversal of learned helplessness in the induction subjects correlates to antidepressant activity of the test compound.
Avoidance training, 45-min in duration, is conducted on 2 consecutive days, beginning 48 hr after the final induction session. Seventy subjects are assigned to 1 of 6 groups of 11-12 animals. The groups are as follows:
Groups 2-6 are given induction and avoidance training sessions. Injections are administered immediately following induction sessions and 1 hour prior to avoidance training sessions. A second injection is administered 7-8 hours following the first injection, for a total of 9 injections administered over 5 days. No injections are administered following the final avoidance training session.
Compounds of the present invention may be administered in a volume of 1 mL/kg bwt. Imipramine is dissolved in DI water. The compounds are dissolved in DI water, to which was added a few drops of lactic acid (pH 5.5). […]

Compound	activity in the learned helplessness assay
COc1cc(N2CCN(C)CC2)c2oc(C(=O)Nc3ccc(N4CCOCC4)cc3)cc(=O)c2c1 [Example 31, 6-Methoxy-8-(4-methyl-piperazin-1-yl)-4-oxo-4H-chromene-2-carboxylic acid (4-morpholin-4-yl-phenyl)-amide]	demonstrate activity
CCC(=O)N1CCN(c2ccc(NC(=O)c3cc(=O)c4cc(OC)cc(N5CCN(C)CC5)c4o3)cc2)CC1 [Example 44, 6-Methoxy-8-(4-methyl-piperazin-1-yl)-4-oxo-4H-chromene-2-carboxylic Acid [4-(4-propionyl-piperazin-1-yl)-phenyl]-amide]	demonstrate activity
CCS(=O)(=O)N1CCN(c2ccc(NC(=O)c3cc(=O)c4cc(F)cc(N5CCN(C)CC5)c4o3)cc2)CC1 [Example 71]	demonstrate activity
CCC(=O)N1CCN(c2ccc(NC(=O)c3cc(=O)c4cc(F)cc(N5CCN(C)CC5)c4o3)cc2)CC1 [Example 72, 6-flouro-8-(4-methyl-piperazin-1-yl)-4-oxo-4H-chromene-2-carboxylic acid [4-(4-propionyl-piperazin-1-yl)-phenyl]-amide]	demonstrate activity

Molecular target: 5-HT1B and 5HT1D receptors
Assay: not given
Conditions: saturation studies, guinea pig cortex; 'may result in a measurement of'; read-out: Kd value of [3H]GR125743; cited from earlier work

Compound	Kd
COc1ccc(NC(=O)c2ccc(-c3ccncc3)c(C)c2)cc1N1CCN(C)CC1 [[^3H]-GR125743]	0.046 ± 0.004 nM

Reference: patent US20040082591A1, “Therapeutic heterocyclic compounds” (priority 2001, published 2004)
